According to patent publication US20130310256A1, “HERBICIDAL COMPOSITIONS COMPRISING 4-AMINO-3-CHLORO-5-FLUORO-6-(4-CHLORO-2-FLUORO-3-METHOXYPHENYL) PYRIDINE-2-CARBOXYLIC ACID OR A DERIVATIVE THEREOF AND VLCFA AND LIPID SYNTHESIS INHIBITING HERBICIDES” (DOW AGROSCIENCES LLC, priority 2008, published 2013):

Assays:
ECHCO = assay: Example I: postemergence foliar-applied weed control, greenhouse; type: in vivo, Echinochloa colona (L.) Link (junglerice); conditions: 275 gai/ha; foliar
Summary of the method: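 Plants grown in loam/sandy loam–calcareous grit soil (80:20) in greenhouse, 14 hr photoperiod, about 29° C. day/26° C. night, treated postemergence at first to fourth true leaf stage. Foliar spray at 187 L/ha with 1.25% (v/v) crop oil concentrate; Compound A dosed on acid equivalent basis, partners on active ingredient basis.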

XANST = assay: Example IV: pre-emergence soil-applied weed control, greenhouse; type: in vivo, Xanthium strumarium L. (common cocklebur); conditions: 29 DAA
From the text: Seeds or nutlets of the desired test plant species were planted in a soil matrix prepared by mixing a loam soil (32 percent silt, 23 percent clay, and 45 percent sand, with a pH of about 6.5 and an organic matter content of about 1.9 percent) and calcareous grit in an 80 to 20 ratio. The soil matrix was contained in plastic pots with a volume of 1 quart and a surface area of 83.6 square centimeters (cm^2).
Treatments consisted of the benzyl ester of 4-amino-3-chloro-5-fluoro-6-(4-chloro-2-fluoro-3-methoxy-phenyl)pyridine-2-carboxylic acid (compound A) formulated as an SC (suspension concentrate) and various herbicidal components alone and in combination. Forms of compound A were applied on an acid equivalent basis.
Other herbicidal components were applied on an active ingredient basis and included very long chain fatty acid (VLCFA) synthesis-inhibiting and fatty acid/lipid synthesis-inhibiting herbicides alachlor (technical grade material), dimethenamid-P formulated as Outlook®, and S-metolachlor formulated as Dual® II Magnum.
Treatment requirements were calculated based upon the rates being tested, the concentration of active ingredient or acid equivalent in the formulation, and a 12 mL application volume at a rate of 187 L/ha.
For treatments comprised of formulated compounds, measured amounts of compounds were placed individually in 25 mL glass vials and diluted in a volume of 1.25% (v/v) Agri-Dex® crop oil concentrate (COC) to obtain 12× stock solutions. […] Application solutions were prepared by adding an appropriate amount of each stock solution (e.g., 1 mL) and diluted to the appropriate final concentrations with the addition of 10 mL of an aqueous mixture of 1.25% (v/v) COC so that the final spray solutions contained 1.25% (v/v) COC.
For treatments comprised of technical compounds, weighed amounts can be placed individually in 25 mL glass vials and dissolved in a volume of 97:3 (v/v) acetone/DMSO to obtain 12× stock solutions. […] Application solutions can be prepared by adding an appropriate amount of each stock solution (e.g., 1 mL) and diluted to the appropriate final concentrations with the addition of 10 mL of an aqueous mixture of 1.5% (v/v) COC so that the final spray solutions contain 1.25% (v/v) COC. […]
For treatments comprised of formulated and technical compounds, weighed amounts of the technical materials were placed individually in 25 mL glass vials and dissolved in a volume of 97:3 (v/v) acetone/DMSO to obtain 12× stock solutions, and measured amounts of the formulated compounds were placed individually in 25 mL glass vials and diluted in a volume of 1.5% (v/v) COC or water to obtain 12× stock solutions. […]

CYPES = assay: Example I: postemergence foliar-applied weed control, greenhouse; type: in vivo, Cyperus esculentus L. (yellow nutsedge); conditions: 275 gai/ha

## COC[C@H](C)N(C(=O)CCl)c1c(C)csc1C [Dimethenamid-P, (S) 2-chloro-N-(2,4-dimethyl-3-thienyl)-N-(2-methoxy-1-methylethyl)acetamide]
ECHCO
  Visual Weed Control (%) - 20 DAA ECHCO Obs: 70%
XANST; 410 gai/ha
  Visual Weed Control XANST Obs: 23%
XANST; 820 gai/ha
  Visual Weed Control XANST Obs: 30%
XANST; 1640 gai/ha
  Visual Weed Control XANST Obs: 50%
CYPES
  Visual Weed Control (%) - 20 DAA CYPES Obs: 0%
